According to patent US20090186915A1, “Compositions and methods for treatment of glioblastoma, gliosarcoma, NSCLC, and head and neck cancer” (Unibioscreen S. A., priority 2006, published 2009):
Like-named read-outs stand apart in the source and are kept apart here.

Experiments:
[1] = system: LoVo; assay: MTT colorimetric assay, LoVo cells; type: cell-based; details: Homo sapiens, 72 h, 3 days of culturing, mean of six determinations, read-out: IC50 (μM) In Vitro Growth Inhibition
Method: The overall growth of human cancer cell lines was determined by means of the calorimetric MTT (3-[4,5-dimethylthiazol-2-yl]-diphenyl tetrazolium bromide; Sigma) assay, as detailed previously.

[2] = system: U-373 MG; assay: Cell migration (phase-contrast microscopy); type: cell-based; details: Homo sapiens, U373 MG, 22 h, read-out: Maximum effects (cell migration); for Emax at 0.1 µM: at 10^−7 M
Method: Cells of different cancer lines, i.e. U-373 MG (Glioma cancer) and A549 (Lung cancer) were seeded on culture flask 48 hours before the migration experiment. On the test day, cells were treated with or without the compound of example 2 in closed Falcon dishes containing a buffered medium at a controlled temperature (37.0±0.1° C.) for 12 or 22 hours, as noted in the right column of table 3. The compound of example 2 was used at three non-cytotoxic concentrations (10^−6 M, 10^−7M, 10^−8 M). Migration of the cells was observed by means of a CCD-camera mounted on a phase-contrast microscope. Statistical analysis of the migration, with the non-parametric Mann-Whitney test, was established for 25% and 50% of the most motile cells and for the entire cell population.

[3] = system: PC-3; assay: Lysosomal membrane permeabilization (LMP), PC-3; type: cell-based, human; details: 72 hours, 1 μM or 10 μM
Excerpt: It is well known that lysosomes control cell death at several levels. In response to endogenous or exogenous stress (including chemotherapy), lysosomal membrane permeabilization (LMP) can occur, leading to the release of catabolic hydrolases that can mediate caspase-dependent apoptosis, caspase-independent apoptosis-like cell death or even necrosis following high levels of LMP.

[4] = system: PC-3; assay: Senescence-associated β-galactosidase staining, PC-3; type: cell-based, human; details: 10 μM, 72 hours
Method: After the indicated treatments, cells were washed in PBS, fixed for 3 to 5 minutes (at room temperature) in 2% formaldehyde/0.2% glutaraldehyde, washed and incubated at 37° C. (in the absence of CO2) with fresh senescence-associated β-Gal (SA-β-Gal) staining solution: 1 mg/ml of 5-bromo-4-chloro-3-indolyl […] (X-Gal; Sigma). Staining was evident within 2 to 4 hours and maximal after 12 to 16 hours. To detect lysosomal β-Gal, the citric acid/sodium phosphate used was pH 4.0. As described in the study of Dimri et al. [Proc Natl Acad Sci USA. 1995; 92:9363-9367.], after fixing and staining with X-Gal, the number of cells positive for the SA-β-Gal activity (intense blue staining) was then counted independently by two different individuals (on 400 cells/plate). Representative photographs (original magnifications, ×20) of stained cells from different experimental treatments were taken. As a positive control for SA-β-Gal expression, Adriamycin-treated cells were used.
Human PC-3 and DU-145 prostate cancer cells cultured in 0 or 10 μM UNBS5162 or 20 nM Adriamycin for 72 hours were evaluated by SA-β-Gal staining. The data clearly indicate that 10 μM [but not 1 μM or 5×1 μM] […] TMZ, as an inducer of autophagy but not of senescence, was used as a negative control.

[5] = system: BFU-E; assay: HALO hematotoxicity assay, mouse BFU-E; type: cell-based; details: 5 days culture, iATP
Method: (§1) Investigation of the hematotoxic potential of UNBS5162 was undertaken by HemoGenix (Colorado Springs, Colo.). The effects of UNBS5162 on stem and progenitor cell populations from murine and human bone marrow were assessed using HALO (Hematopoietic/Hematotoxicity Assay through Luminescence Output) technology. Stem and hematopoietic progenitor cell populations were isolated from mouse and human bone marrow samples, plated at a concentration of 1.0×10^4 cells/well and cultured for 5 and 7 days, respectively, in the presence of growth factors and increasing concentrations of UNBS5162 ranging from 0.5 nM to 50 μM. The proliferative or growth potential of cell populations was determined from intracellular ATP (iATP) concentrations and a luciferin/luciferase bioluminescence signal detection system. All samples were assayed in eight replicates. The results are presented as estimated inhibitory concentration (IC) values.

[6] = system: Mk-CFC; assay: HALO hematotoxicity assay, human Mk-CFC; type: cell-based; details: 7 days culture, iATP
Method: as §1

[7] = Body weight of MXT-HI tumor-bearing mice; type: in vivo, female B6D2F1 mice; details: for Mean body weight: UNBS5162 i.v. (5i × 3w) 10 mg/kg, alone or with 10 gray
[8] = system: PC-3 Human Prostate Cancer Cells; assay: Affymetrix whole genome microarray, gene targets; details: mRNA
Method: We performed a first experiment of evaluation of gene targets by means of Affymetrix whole genome microarray using human PC-3 cancer cells grown in vitro and treated with the compound of the invention (N-{2-[2-(dimethylamino)ethyl]-1,3-dioxo-2,3-dihydro-1H-benzo[de]isoquinolin-5-yl}urea) either one time at 1 μM or 10 μM, or 5 times a week (one time a day during five consecutive days) at 1 μM (Full genome analyses were performed at the VIB MicroArray Facility (UZ Gasthuisberg, Catholic University of Leuven, Belgium) using Affymetrix Human Genome U133 set Plus 2.0 (High Wycombe, United Kingdom).
Full genome-wide analyses were performed at the VIB MicroArray Facility (UZ Gasthuisberg, Catholic University of Leuven, Leuven, Belgium) using the Affymetrix Human Genome U133 set Plus 2.0 (High Wycombe, UK).
In addition to R, an open-source software environment for statistical computing, a set of functions called BioConductor was used for the analysis and comprehension of the genomic data. The quality controls in the Affymetrix microarray experiments were performed with the Simpleaffy package and agreed with Affymetrix guidelines. The background correction, expression quantification and normalization were performed using Robust Multichip Analysis. To select differentially expressed genes between two experimental conditions, probes for which no overlap occurred between intervals in the expression values obtained for each condition were first identified. The fold change between two experimental conditions was computed for each of these probes (without any value overlap) as the ratio between the two nearest unlog expression values observed for the two different conditions (i.e., the ratio closest to 1 between any two values from the two different conditions). Probes for which these ratios were above 2.0 or below 0.50 were then selected. The annotations of the genes finally selected in this way were retrieved from the Affymetrix Web site through the BioConductor package ghgu133plus2.h. […] This software package was then used to rank functional clusters by means of the statistical overrepresentation of individual genes in specific categories relative to all the genes in the same category on the microarray.

[9] = 1 μM once a day for five consecutive days

## CN(C)CCN1C(=O)c2cccc3cc(NC(N)=O)cc(c23)C1=O [UNBS5162, N-{2-[2-(dimethylamino)ethyl]-1,3-dioxo-2,3-dihydro-1H-benzo[de]isoquinolin-5-yl}urea]
[1]
  IC50: 8.9 µM
[2]; 22 hours on the 25% of the most motile cells
  Emax at 0.1 µM: -29%
[2]; 22 hours on the 50% of the most motile cells
  Emax at 0.1 µM: -24%
[2]; 22 hours on the 100% of cells, at the 10^−7 M
  Emax: -20%
[3]
  lysosomal membrane permeabilization (LMP): no LMP
[4]
  SA-β-Gal expression: Limited SA-β-Gal expression
[5]; 120 h
  IC50: 5.53 µM
  IC90: 9.11 µM
[5]
  IC75: 7.03 µM
[6]; 168 h
  IC50: 4.05 µM
  IC90: 20.1 µM
[6]
  IC75: 9.22 µM
[7]; Day 14
  Mean body weight: 22.13 g
[7]; Day 16
  Mean body weight: 23.39 g
[7]; Day 19
  Mean body weight: 25.72 g
[7]; Day 21
  Mean body weight: 24.35 g
[7]; Day 23
  Mean body weight: 25.46 g
[7]; Day 26
  Mean body weight: 28.52 g
[7]; UNBS5162 10 mg/kg i.v. 5i×3w, alone or with 1×10 gray
  changes in body weights compared to control: No significant changes in body weights
[8]; [9]
  ALDH1A3 Expression Level: 5 × 1 μM: 3.7
  ASNS Expression Level: 5 × 1 μM: 0.9
  BCAT1 Expression Level: 5 × 1 μM: 0.8
  CBS Expression Level: 5 × 1 μM: 1.0
  CTH Expression Level: 5 × 1 μM: 0.9
  H2BFS Expression Level: 5 × 1 μM: 0.5
  HIST1H2AC Expression Level: 5 × 1 μM: 0.2
  HIST1H2BC Expression Level: 5 × 1 μM: 0.7
  HIST1H2BD Expression Level: 5 × 1 μM: 0.3
  HIST1H2BG Expression Level: 5 × 1 μM: 0.5
  HIST1H2BK Expression Level: 5 × 1 μM: 0.3
  HIST1H3D Expression Level: 5 × 1 μM: 0.6
  HIST1H3H Expression Level: 5 × 1 μM: 0.6
  HIST2H2AA Expression Level: 5 × 1 μM: 0.5
  HIST2H2BE Expression Level: 5 × 1 μM: 0.3
  PHGDH Expression Level: 5 × 1 μM: 1.0
  SARS Expression Level: 5 × 1 μM: 0.9
  SAT Expression Level: 5 × 1 μM: 0.8
[8]; one time at 1 μM
  ALDH1A3 CT versus 1 μM: 0.7
  ASNS CT versus 1 μM: 1.3
  CBS CT versus 1 μM: 1.0
  CTH CT versus 1 μM: 1.1
  H2AFY CT versus 1 μM: 1.7
  HIST1H2AC CT versus 1 μM: 1.0
  HIST1H3D CT versus 1 μM: 0.9
  PHGDH CT versus 1 μM: 1.4
  SARS CT versus 1 μM: 1.0
  SAT CT versus 1 μM: 1.1
[8]; one time at 10 μM
  ALDH1A3 Expression Level: 10 μM: 2.3
  ASNS Expression Level: 10 μM: 3.6
  BCAT1 Expression Level: 10 μM: 2.1
  CBS Expression Level: 10 μM: 2.2
  CTH Expression Level: 10 μM: 2.0
  H2AFY Expression Level: 10 μM: 2.6
  H2BFS Expression Level: 10 μM: 0.5
  HIST1H2AC Expression Level: 10 μM: 0.4
  HIST1H2BC Expression Level: 10 μM: 0.4
  HIST1H2BD Expression Level: 10 μM: 0.3
  HIST1H2BG Expression Level: 10 μM: 0.4
  HIST1H2BK Expression Level: 10 μM: 0.5
  HIST1H3D Expression Level: 10 μM: 0.4
  HIST1H3H Expression Level: 10 μM: 0.3
  HIST2H2AA Expression Level: 10 μM: 0.4
  HIST2H2BE Expression Level: 10 μM: 0.5
  PHGDH Expression Level: 10 μM: 2.4
  SARS Expression Level: 10 μM: 2.6
  SAT Expression Level: 10 μM: 0.5
